# Measurements published in patent publication US10647679B2, “N-methyl-D-aspartate receptor (NMDAR) potentiators, pharmaceutical compositions, and uses related thereto” (Emory University, priority 2015, dated 2020).
# Like-named read-outs stand apart in the source and are kept apart here.
# Tests used:
# Assay type in all cases: cell-based
# [1] = molecular target: T1, recombinant rat GluN1/GluN2C (Rattus norvegicus, UniProt P35439+Q00961); assay: Two-electrode voltage-clamp (TEVC) recordings in Xenopus laevis oocytes, GluN1/GluN2C
# T1 construct: expressed in transfected cells; host or cells: Xenopus laevis oocytes (Ecocyte) injected with in vitro transcribed cRNA
# T1 sequence (Q00961 20-1237, other chains not shown): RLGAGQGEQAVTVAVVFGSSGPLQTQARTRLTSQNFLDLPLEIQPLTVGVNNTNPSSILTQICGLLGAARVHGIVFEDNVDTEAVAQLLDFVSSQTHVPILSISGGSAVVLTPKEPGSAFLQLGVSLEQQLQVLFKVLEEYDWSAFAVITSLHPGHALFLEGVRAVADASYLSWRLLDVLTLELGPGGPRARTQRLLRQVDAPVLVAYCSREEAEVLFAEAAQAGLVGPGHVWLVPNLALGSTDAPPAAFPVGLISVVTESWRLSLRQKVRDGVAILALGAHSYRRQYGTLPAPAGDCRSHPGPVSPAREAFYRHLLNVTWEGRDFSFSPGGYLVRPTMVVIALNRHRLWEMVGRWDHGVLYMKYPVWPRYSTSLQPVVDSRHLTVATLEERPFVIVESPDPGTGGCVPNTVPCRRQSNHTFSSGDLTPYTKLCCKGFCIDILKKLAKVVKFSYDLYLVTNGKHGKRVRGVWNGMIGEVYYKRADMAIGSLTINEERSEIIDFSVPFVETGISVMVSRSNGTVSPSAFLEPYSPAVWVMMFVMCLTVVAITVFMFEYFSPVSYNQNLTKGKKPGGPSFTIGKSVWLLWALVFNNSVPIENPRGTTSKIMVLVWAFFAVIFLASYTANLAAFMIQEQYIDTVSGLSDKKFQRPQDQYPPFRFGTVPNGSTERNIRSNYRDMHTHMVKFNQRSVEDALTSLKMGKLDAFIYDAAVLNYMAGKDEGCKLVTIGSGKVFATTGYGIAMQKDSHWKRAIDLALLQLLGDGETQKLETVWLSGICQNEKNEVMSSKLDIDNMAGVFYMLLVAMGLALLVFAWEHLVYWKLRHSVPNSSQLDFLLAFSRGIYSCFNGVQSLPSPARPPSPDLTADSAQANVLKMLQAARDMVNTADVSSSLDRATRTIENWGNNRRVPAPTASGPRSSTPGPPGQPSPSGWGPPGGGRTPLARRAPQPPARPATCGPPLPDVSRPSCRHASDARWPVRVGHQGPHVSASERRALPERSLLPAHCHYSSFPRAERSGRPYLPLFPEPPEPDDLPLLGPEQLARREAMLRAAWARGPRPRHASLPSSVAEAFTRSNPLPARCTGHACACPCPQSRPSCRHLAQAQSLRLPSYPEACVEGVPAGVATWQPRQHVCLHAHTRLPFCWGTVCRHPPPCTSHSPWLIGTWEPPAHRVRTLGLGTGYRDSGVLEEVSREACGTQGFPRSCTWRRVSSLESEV
# Experimental: (§1) Data are from between 3-26 oocytes from 2-5 frogs for each compound and receptor tested.
# (§2) Two-electrode voltage-clamp recordings were performed in Xenopus laevis oocytes (Ecocyte) expressing recombinant rat GluN1/GluN2A, GluN1/GluN2B, GluN1/GluN2C, GluN1/GluN2D. cRNA was transcribed in vitro (Ambion), diluted with nuclease free water, and injected at a ratio of 1:2 GluN1:GluN2 (5-10 ng total cRNA). The oocytes were kept in Barth's solution comprised of (in mM) 88 NaCl, 5 Tris-HCl, 2.4 NaHCO3, 1 KCl, 0.84 MgSO4, 0.41 CaCl2, and 0.33 Ca(NO3)2 at pH 7.4 at 15-17° C. for two to five days before experiments. Oocytes were placed into a perfusion chamber and continually washed with recording solution containing (in mM) 90 NaCl, 1.0 KCl, 0.5 BaCl2, 0.005 EDTA, and 10 HEPES at pH 7.4 (23° C.). Voltage clamp recordings were conducted at a holding potential of −40 mV. All compounds were made as 20 mM stock solutions in DMSO and dissolved to reach the final concentration in recording solution. Final DMSO content was 0.05-0.5% (vol/vol). Some oocytes expressing GluN1/GluN2A were pretreated with […] BAPTA-AM for 10 minutes or injected with […] of 2 mM K-BAPTA to prevent gradual run-up of the current response.
# [2] = molecular target: T2, recombinant rat GluN1/GluN2B (Rattus norvegicus, UniProt P35439+Q00960); assay: Two-electrode voltage-clamp (TEVC) recordings in Xenopus laevis oocytes, GluN1/GluN2B
# T2 construct: expressed in transfected cells; host or cells: Xenopus laevis oocytes (Ecocyte) injected with in vitro transcribed cRNA
# T2 sequence (Q00960 27-1482, other chains not shown): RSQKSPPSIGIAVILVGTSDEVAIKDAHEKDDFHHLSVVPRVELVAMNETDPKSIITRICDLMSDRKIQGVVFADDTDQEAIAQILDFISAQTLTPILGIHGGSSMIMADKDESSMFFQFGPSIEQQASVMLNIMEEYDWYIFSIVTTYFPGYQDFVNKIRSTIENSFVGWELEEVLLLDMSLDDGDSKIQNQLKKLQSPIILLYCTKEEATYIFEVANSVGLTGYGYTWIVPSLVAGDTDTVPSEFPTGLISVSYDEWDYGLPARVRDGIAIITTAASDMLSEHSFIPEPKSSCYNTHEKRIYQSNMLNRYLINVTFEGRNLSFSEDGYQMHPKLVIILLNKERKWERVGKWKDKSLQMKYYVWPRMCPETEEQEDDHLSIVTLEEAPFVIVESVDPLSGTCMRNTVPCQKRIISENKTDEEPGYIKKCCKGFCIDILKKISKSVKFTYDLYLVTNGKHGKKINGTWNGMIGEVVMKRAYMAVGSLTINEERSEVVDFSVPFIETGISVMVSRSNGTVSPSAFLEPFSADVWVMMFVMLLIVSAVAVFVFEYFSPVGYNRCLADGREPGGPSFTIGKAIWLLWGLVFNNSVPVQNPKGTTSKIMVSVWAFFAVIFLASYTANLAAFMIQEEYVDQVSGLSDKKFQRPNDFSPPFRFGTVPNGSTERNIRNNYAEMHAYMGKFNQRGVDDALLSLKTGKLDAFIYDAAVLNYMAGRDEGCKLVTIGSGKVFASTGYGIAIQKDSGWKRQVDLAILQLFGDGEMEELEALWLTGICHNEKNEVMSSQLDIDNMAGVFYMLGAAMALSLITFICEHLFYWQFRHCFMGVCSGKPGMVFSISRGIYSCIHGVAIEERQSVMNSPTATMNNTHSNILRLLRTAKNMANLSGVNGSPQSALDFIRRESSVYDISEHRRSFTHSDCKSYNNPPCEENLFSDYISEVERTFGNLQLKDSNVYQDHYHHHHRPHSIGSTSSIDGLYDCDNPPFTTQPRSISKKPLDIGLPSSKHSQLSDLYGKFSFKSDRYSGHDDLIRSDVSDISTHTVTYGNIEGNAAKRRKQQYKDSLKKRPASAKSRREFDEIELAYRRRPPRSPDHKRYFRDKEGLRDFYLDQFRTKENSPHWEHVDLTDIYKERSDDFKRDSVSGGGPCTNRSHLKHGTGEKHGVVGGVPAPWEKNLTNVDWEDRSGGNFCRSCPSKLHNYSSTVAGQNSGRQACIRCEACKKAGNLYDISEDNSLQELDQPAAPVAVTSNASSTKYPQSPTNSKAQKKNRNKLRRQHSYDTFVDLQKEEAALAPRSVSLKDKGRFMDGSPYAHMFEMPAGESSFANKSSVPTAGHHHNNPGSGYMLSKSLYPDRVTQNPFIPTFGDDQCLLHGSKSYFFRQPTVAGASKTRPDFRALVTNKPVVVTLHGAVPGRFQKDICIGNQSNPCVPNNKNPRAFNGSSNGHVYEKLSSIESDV
# Experimental: as §1, §2
# [3] = molecular target: T3, recombinant rat GluN1/GluN2D (Rattus norvegicus, UniProt P35439+Q62645); assay: Two-electrode voltage-clamp (TEVC) recordings in Xenopus laevis oocytes, GluN1/GluN2D
# T3 construct: expressed in transfected cells; host or cells: Xenopus laevis oocytes (Ecocyte) injected with in vitro transcribed cRNA
# Experimental: as §1, §2
# [4] = molecular target: T4, recombinant rat GluN1/GluN2A (Rattus norvegicus, UniProt Q00959); assay: Two-electrode voltage-clamp (TEVC) recordings in Xenopus laevis oocytes, GluN1/GluN2A; conditions: maximum potentiation, response without modulator = 100%
# T4 construct: expressed in transfected cells; host or cells: Xenopus laevis oocytes (Ecocyte) injected with in vitro transcribed cRNA
# T4 sequence (Q00959 23-1464, other chains not shown): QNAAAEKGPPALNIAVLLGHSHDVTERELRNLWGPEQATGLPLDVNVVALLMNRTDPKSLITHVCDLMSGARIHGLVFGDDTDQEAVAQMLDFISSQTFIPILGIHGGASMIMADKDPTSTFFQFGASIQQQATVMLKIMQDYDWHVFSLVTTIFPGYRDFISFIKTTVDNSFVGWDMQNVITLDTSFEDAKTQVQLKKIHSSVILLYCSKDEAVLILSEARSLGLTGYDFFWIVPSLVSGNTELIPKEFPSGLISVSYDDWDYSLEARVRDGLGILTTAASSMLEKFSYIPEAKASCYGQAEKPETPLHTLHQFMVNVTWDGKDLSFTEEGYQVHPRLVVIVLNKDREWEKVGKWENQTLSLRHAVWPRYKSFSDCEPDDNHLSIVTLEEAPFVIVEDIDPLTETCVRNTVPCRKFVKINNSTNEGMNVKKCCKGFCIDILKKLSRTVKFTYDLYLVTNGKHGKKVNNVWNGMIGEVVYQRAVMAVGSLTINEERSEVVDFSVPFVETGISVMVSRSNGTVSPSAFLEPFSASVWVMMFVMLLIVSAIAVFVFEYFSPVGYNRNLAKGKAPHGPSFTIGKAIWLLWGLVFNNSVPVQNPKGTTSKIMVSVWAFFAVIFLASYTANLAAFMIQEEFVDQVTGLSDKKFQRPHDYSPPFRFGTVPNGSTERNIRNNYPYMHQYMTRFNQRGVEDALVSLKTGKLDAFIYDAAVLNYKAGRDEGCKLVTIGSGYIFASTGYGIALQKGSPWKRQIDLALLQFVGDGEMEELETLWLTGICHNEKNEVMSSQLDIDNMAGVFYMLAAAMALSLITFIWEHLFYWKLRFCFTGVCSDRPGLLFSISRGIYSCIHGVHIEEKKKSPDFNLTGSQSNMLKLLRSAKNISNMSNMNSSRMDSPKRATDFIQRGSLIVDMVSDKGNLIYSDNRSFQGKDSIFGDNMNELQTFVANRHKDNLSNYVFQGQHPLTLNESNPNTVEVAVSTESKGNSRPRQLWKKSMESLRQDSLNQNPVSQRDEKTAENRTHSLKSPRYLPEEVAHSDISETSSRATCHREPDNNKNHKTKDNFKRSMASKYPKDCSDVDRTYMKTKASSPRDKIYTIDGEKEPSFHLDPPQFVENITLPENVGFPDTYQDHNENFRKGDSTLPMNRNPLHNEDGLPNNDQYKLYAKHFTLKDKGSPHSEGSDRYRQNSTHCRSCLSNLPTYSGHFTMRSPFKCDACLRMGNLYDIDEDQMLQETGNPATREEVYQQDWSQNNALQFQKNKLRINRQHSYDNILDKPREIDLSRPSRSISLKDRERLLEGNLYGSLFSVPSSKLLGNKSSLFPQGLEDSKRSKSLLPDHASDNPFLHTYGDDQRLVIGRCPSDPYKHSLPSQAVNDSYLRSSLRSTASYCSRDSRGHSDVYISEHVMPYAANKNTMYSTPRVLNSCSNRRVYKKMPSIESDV
# Experimental: as §2
# [5] = molecular target: T5, recombinant rat GluN1/GluN2C (Rattus norvegicus, UniProt Q00961); assay: Two-electrode voltage-clamp (TEVC) recordings in Xenopus laevis oocytes, GluN1/GluN2C
# T5 construct: expressed in transfected cells; host or cells: Xenopus laevis oocytes (Ecocyte) injected with in vitro transcribed cRNA
# T5 sequence (Q00961 20-1237, other chains not shown): as the sequence (Q00961 20-1237, other chains not shown) above
# Experimental: as §1, §2
# [6] = molecular target: T6, recombinant rat GluN1/GluN2B (Rattus norvegicus, UniProt Q00960); assay: Two-electrode voltage-clamp (TEVC) recordings in Xenopus laevis oocytes, GluN1/GluN2B
# T6 construct: expressed in transfected cells; host or cells: Xenopus laevis oocytes (Ecocyte) injected with in vitro transcribed cRNA
# Experimental: as §1, §2
# [7] = molecular target: T7, recombinant rat GluN1/GluN2D (Rattus norvegicus, UniProt Q62645); assay: Two-electrode voltage-clamp (TEVC) recordings in Xenopus laevis oocytes, GluN1/GluN2D
# T7 construct: expressed in transfected cells; host or cells: Xenopus laevis oocytes (Ecocyte) injected with in vitro transcribed cRNA
# Experimental: as §1, §2
# [8] = maximum potentiation, response without modulator = 100%, read-out: GluN2C EC50 (μM)/Max %: Max %
# [9] = maximum potentiation, response without modulator = 100%, read-out: GluN2B EC50 (μM)/Max %: Max %
# [10] = maximum potentiation, response without modulator = 100%, read-out: GluN2D EC50 (μM)/Max %: Max %
# [11] = maximum potentiation, response without modulator = 100%
structure (smiles),measurement,setting,value
COc1ccc(OCC2c3ccc(OC(C)C)cc3CCN2C(=S)c2cccc(F)c2)cc1 (centres unmarked) [1180-166],Emax,[1]; [8],233%
same,Emax,[2]; [9],307%
same,Emax,[3]; [10],200%
same,GluN2A EC50 (μM)/Max %: Max %,[4],179%
CCOc1ccc(OCC2c3ccc(OC(C)C)cc3CCN2C(=S)c2ccc(F)c(Cl)c2)cc1 (centres unmarked) [1180-165],GluN2C EC50 (μM)/Max %: Max %,[5]; [11],162%
same,GluN2B EC50 (μM)/Max %: Max %,[6]; [11],226%
same,GluN2D EC50 (μM)/Max %: Max %,[7]; [11],141%
same,GluN2A EC50 (μM)/Max %: Max %,[4],191%
COc1ccc(OCC2c3ccc(OC(C)C)cc3CCN2C(=O)c2cccc(F)c2)cc1 (centres unmarked) [1180-140],Emax,[1]; [8],304%
same,Emax,[2]; [9],450%
same,Emax,[3]; [10],521%
same,GluN2A EC50 (μM)/Max %: Max %,[4],159%
COc1ccc(OC[C@@H]2c3ccc(OC(C)C)cc3CCN2C(=O)c2cccc(Cl)c2)cc1 [(S)-(−)-1180-55],"I10 μM/Icontrol (mean ± SEM, %) GluN2C","[5]; 10 μM compound, Table 3",361%
same,Emax,"[1]; percentage of the initial glutamate (100 μM) and glycine (30 μM) current, read-out: EC50 (max.) (μM %) GluN2C: fitted maximum response",360%
same,EC50,"[2]; fitted when potentiation at 30 μM exceeded 120%, Tables 3, 5-7, read-out: EC50 (max.) (μM %) GluN2B: fitted EC50",5.2 µM
same,Emax,"[2]; percentage of the initial glutamate (100 μM) and glycine (30 μM) current, read-out: EC50 (max.) (μM %) GluN2B: fitted maximum response",307%
same,"I10 μM/Icontrol (mean ± SEM, %) GluN2B","[6]; 10 μM compound, Table 3",269%
same,"I10 μM/Icontrol (mean ± SEM, %) GluN2D","[7]; 10 μM compound, Table 3",336%
same,EC50,"[3]; fitted when potentiation at 30 μM exceeded 120%, Tables 3, 5-7, read-out: EC50 (max.) (μM %) GluN2D: fitted EC50",4.5 µM
same,Emax,"[3]; percentage of the initial glutamate (100 μM) and glycine (30 μM) current, read-out: EC50 (max.) (μM %) GluN2D: fitted maximum response",350%
